For twelve compounds, IC50 results are on record in patent US7157430B2, “(Substituted)acyl dipeptidyl inhibitors of the ICE/CED-3 family of cysteine proteases” (Idun Pharmaceuticals, Inc., priority 1998, dated 2007).

The structures appear in SMILES notation. Like-named read-outs stand apart in the source and are kept apart here. Where a SMILES comes first, the peptide text is derived from it. The star is where a group is joined. Cbz = O=C(OCc1ccccc1)* A value given as a limit tells only on which side of the number the result lay.

What all share (assay type): biochemical
One experiment addresses T1, mICE (Mus musculus, UniProt P29452).
T1 sequence (P29452 123-296 limits assumed): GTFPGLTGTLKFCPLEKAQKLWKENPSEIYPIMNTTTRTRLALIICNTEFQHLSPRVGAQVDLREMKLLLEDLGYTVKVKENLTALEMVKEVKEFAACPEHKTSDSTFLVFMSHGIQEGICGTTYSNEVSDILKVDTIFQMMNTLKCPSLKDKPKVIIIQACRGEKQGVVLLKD
T1 sequence (P29452 315-402 limits assumed): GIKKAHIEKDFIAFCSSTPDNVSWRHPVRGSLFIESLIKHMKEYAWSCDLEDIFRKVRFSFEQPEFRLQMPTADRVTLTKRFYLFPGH
Briefly: Fluorescence enzyme assay, IC50 determination, ICE. The protocol: (§1) Fluorescence enzyme assays detecting the activity of the compounds of Formula 1 utilizing the recombinant ICE and CPP32 enzymes are performed essentially according to Thornberry et al. (Nature, 356:768:774 (1992)) and Nicholson et al. (Nature, 376:37–43 (1995)) respectively, (herein incorporated by reference) in 96 well microtiter plates. The substrate is Acetyl-Tyr-Val-Ala-Asp-amino-4-methylcoumarin (AMC) for the ICE assay and Acetyl-Asp-Glu-Val-Asp-amino-4-methylcoumarin for the CPP32, Mch2, Mch3 and Mch5 assays. Enzyme reactions are run in ICE buffer (25 mM HEPES, 1 mM EDTA, 0.1% CHAPS, 10% sucrose, pH 7.5) containing 2 mM DTT at room temperature in duplicate.
(§2) The enzyme and the compound of Formula I to be assayed are allowed to preincubate in the microtitre plate wells for 30 minutes at room temperature prior to the addition of substrate to initiate the reaction. Fluorescent AMC product formation is monitored for one hour at room temperature by measuring the fluorescence emission at 460 nm using an excitation wavelength of 360 nm. The fluorescence change in duplicate (control) wells are averaged and the mean values are plotted as a function of inhibitor concentration to determine the inhibitor concentration producing 50% inhibition (IC50). The results of this assay are set forth below in Table 1 and in Table 3 (for Table 3, see Examples 11 through 52).
(§3) The reference compound for this assay was Cbz-ValAlaAsp-H and the values are denoted in Table 1 as “Reference”.

Another experiment deals with T2, CPP32 (Homo sapiens, UniProt P42574).
T2 sequence (P42574 29-175 limits assumed): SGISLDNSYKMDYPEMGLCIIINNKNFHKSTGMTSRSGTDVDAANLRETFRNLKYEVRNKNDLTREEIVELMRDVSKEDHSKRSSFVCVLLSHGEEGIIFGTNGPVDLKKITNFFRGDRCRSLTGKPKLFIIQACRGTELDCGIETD
T2 sequence (P42574 176-277 limits assumed): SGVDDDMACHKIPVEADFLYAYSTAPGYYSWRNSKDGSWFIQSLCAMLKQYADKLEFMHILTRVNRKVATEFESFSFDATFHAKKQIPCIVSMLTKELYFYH
Briefly: Fluorescence enzyme assay, IC50 determination, CPP32. The protocol:
as §1, §2, §3

Another experiment deals with T3, MCH-2 (Homo sapiens, UniProt P55212).
T3 sequence (P55212 24-179 limits assumed): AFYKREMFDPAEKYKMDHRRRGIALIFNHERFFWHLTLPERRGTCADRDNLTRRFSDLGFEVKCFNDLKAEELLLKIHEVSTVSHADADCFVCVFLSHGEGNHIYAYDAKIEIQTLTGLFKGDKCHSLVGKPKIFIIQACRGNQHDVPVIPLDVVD
T3 sequence (P55212 194-293 limits assumed): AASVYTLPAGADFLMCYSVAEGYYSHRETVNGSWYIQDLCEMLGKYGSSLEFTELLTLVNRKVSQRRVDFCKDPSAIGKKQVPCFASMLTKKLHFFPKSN
In words: Fluorescence enzyme assay, IC50 determination, Mch2. As to the method:
as §1, §2, §3

The target of a further experiment is T4, MCH-3 (Homo sapiens, UniProt P55210).
T4 sequence (P55210 24-198 limits assumed): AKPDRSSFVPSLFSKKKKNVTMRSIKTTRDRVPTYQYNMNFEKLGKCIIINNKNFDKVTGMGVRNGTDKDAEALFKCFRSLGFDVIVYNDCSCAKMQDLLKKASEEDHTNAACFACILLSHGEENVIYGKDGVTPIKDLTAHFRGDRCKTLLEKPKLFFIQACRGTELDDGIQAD
T4 sequence (P55210 207-303 limits assumed): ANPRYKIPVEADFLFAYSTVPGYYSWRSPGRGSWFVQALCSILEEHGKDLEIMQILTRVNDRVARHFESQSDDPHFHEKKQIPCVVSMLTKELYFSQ
Briefly: Fluorescence enzyme assay, IC50 determination, Mch3. The protocol:
as §1, §2, §3

Another experiment concerns the target MCH-5 (Homo sapiens, UniProt Q14790). Briefly: Fluorescence enzyme assay, IC50 determination, Mch5. The protocol:
as §1, §2, §3

Setting [1] is: Table 3, method of Preparation 3A, read-out: mICE I50.
Setting [2] is: Table 3, method of Preparation 3A, read-out: CPP32 I50.
Where [3] appears, read: Table 3, method of Preparation 3A, read-out: MCH2 I50.
Where [4] appears, read: Table 3, method of Preparation 3A, read-out: MCH3 I50.
[5] abbreviates: Table 3, method of Preparation 3A, read-out: MCH5 I50.
Setting [6] is: recombinant enzyme, Ac-YVAD-AMC substrate, 30 min preincubation, room temperature, read-out: mICE IC50.
Setting [7] is: recombinant enzyme, Ac-DEVD-AMC substrate, 30 min preincubation, room temperature, read-out: CPP32 IC50.
The mark [8] stands for this setting: Ac-DEVD-AMC substrate, 30 min preincubation, room temperature, read-out: MCH-2 IC50.
Where [9] appears, read: Ac-DEVD-AMC substrate, 30 min preincubation, room temperature, read-out: MCH-3 IC50.
[10] abbreviates: Ac-DEVD-AMC substrate, 30 min preincubation, room temperature, read-out: MCH-5 IC50.

Chain of MCH-5 (Q14790 217-374 limits assumed, species assumed): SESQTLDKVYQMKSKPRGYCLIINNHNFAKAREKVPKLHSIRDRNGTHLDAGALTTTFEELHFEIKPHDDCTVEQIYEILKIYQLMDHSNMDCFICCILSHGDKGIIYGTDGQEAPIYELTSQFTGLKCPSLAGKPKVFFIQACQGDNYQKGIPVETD
Chain of MCH-5 (Q14790 385-479 limits assumed, species assumed): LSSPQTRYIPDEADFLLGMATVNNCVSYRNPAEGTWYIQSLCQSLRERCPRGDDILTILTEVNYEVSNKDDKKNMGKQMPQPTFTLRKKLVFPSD

Turning to `CC(C)C[C@H](NC(=O)COc1ccc2ccccc2c1)C(=O)N[C@H](C=O)CC(=O)O` [Example 13], the IC50 was 2.57 µM at mICE (setting [1]); 0.944 µM on CPP32 (setting [2]); 18.6 µM on MCH-2 (setting [3]); 8.87 µM on MCH-3 (setting [4]); greater than 10 µM on MCH-5 (setting [5]).

As to `CC(C)C[C@H](NC(=O)CCOc1ccccc1)C(=O)N[C@H](C=O)CC(=O)O` [Example 37], the IC50 is 9.42 µM on mICE (setting [1]); 0.419 µM at CPP32 (setting [2]); greater than 50 µM on MCH-2 (setting [3]); 6.04 µM at MCH-3 (setting [4]); greater than 10 µM at MCH-5 (setting [5]).

As for `CC(C)C[C@H](NC(=O)COc1cccc2cccnc12)C(=O)N[C@H](C=O)CC(=O)O` [Example 34], the IC50 at mICE (setting [1]) is 13.7 µM; on CPP32 (setting [2]) it was 0.147 µM; on MCH-2 (setting [3]), 12.5 µM; on MCH-3 (setting [4]), 1.51 µM; at MCH-5 (setting [5]) it was 2.24 µM.

On to `CC(C)C[C@H](NC(=O)CCSc1ccc2ccccc2c1)C(=O)N[C@H](C=O)CC(=O)O` [Example 25], for which the IC50 at mICE (setting [1]) was found to be 0.611 µM; at CPP32 (setting [2]), 0.837 µM; at MCH-2 (setting [3]), 1.62 µM; at MCH-3 (setting [4]), 5.89 µM; on MCH-5 (setting [5]) it was 15 µM.

In the case of `CC(C)C[C@H](NC(=O)COc1ccc(-c2ccccc2)cc1)C(=O)N[C@H](C=O)CC(=O)O` [Example 41], the IC50 came out at 1.9 µM on mICE (setting [1]); 0.763 µM at CPP32 (setting [2]); 20.5 µM on MCH-2 (setting [3]); 12 µM at MCH-3 (setting [4]); 7.53 µM on MCH-5 (setting [5]).

Turning to `CC(C)C[C@H](NC(=O)COc1ccc(Cc2ccccc2)cc1)C(=O)N[C@H](C=O)CC(=O)O` [Example 43], the IC50 was found to be 1.8 µM on mICE (setting [1]); 0.346 µM on CPP32 (setting [2]); 18.9 µM at MCH-2 (setting [3]); 4.41 µM at MCH-3 (setting [4]); 4.72 µM at MCH-5 (setting [5]).

On to `CC(C)C[C@H](NC(=O)COc1ccc(OCc2ccccc2)cc1)C(=O)N[C@H](C=O)CC(=O)O` [Example 46], for which the IC50 at mICE (setting [1]) amounted to 2.51 µM; on CPP32 (setting [2]), 0.57 µM; at MCH-2 (setting [3]), 33.4 µM; at MCH-3 (setting [4]), 7.25 µM; at MCH-5 (setting [5]), 8.6 µM.

Turning to `CC(C)[C@H](NC(=O)OCc1ccccc1)C(=O)N[C@@H](C)C(=O)N[C@H](C=O)CC(=O)O` [reference, Cbz-ValAlaAsp-H, reference compound] (Cbz-Val-Ala-Asp-aldehyde), the IC50 on mICE (setting [6]) was 0.064 µM; on CPP32 (setting [7]), 47 µM; at MCH-2 (setting [8]) it was greater than 10 µM; on MCH-3 (setting [9]), greater than 10 µM; on MCH-5 (setting [10]), 2.96 µM.

In the case of `CC(C)C[C@H](NC(=O)COc1ccc(Oc2ccccc2)cc1)C(=O)N[C@H](C=O)CC(=O)O` [Example 44], the IC50 on mICE (setting [1]) was 2.21 µM; at CPP32 (setting [2]), 0.545 µM; at MCH-2 (setting [3]), 21.2 µM; on MCH-3 (setting [4]), 6.82 µM; at MCH-5 (setting [5]) it was 9.28 µM.

As for `CC(C)C[C@H](NC(=O)CCSc1cccc2ccccc12)C(=O)N[C@H](C=O)CC(=O)O` [Example 24], the IC50 on mICE (setting [1]) was 0.563 µM; at CPP32 (setting [2]), 0.412 µM; on MCH-2 (setting [3]), 2.72 µM; on MCH-3 (setting [4]), 3.6 µM; at MCH-5 (setting [5]) it was 16.3 µM.

As for `O=C[C@H](CC(=O)O)NC(=O)[C@@H]1CSC(c2ccccc2)N1C(=O)COc1cccc2ccccc12` (stereo partly drawn) [Example 179, (3S,2′RS,4′R)-3-[3′-((1-Naphthyloxy)Acetyl)-2′-Phenylthiazolidine-4′-Carbonyl]Amino-4-Oxobutanoic Acid], the IC50 on mICE (setting [6]) is 0.204 µM; on CPP32 (setting [7]), 14 µM; on MCH-2 (setting [8]) it was 3.53 µM; on MCH-3 (setting [9]) it was greater than 50 µM; on MCH-5 (setting [10]), 1.55 µM.

In the case of `CC(C)C[C@H](NC(=O)COc1nccc2ccccc12)C(=O)N[C@H](C=O)CC(=O)O` [Example 30], the IC50 on mICE (setting [1]) is 44.2 µM; on CPP32 (setting [2]), 1.57 µM; on MCH-2 (setting [3]) it was greater than 50 µM; on MCH-3 (setting [4]), 34.7 µM; at MCH-5 (setting [5]) it was greater than 50 µM.
